Source: patent US20240010606A1, “FUMARATE DERIVATIVES AND THEIR MEDICAL USE” (Sitryx Therapeutics Limited, priority 2020, published 2024)
Where a name gives a salt, the structure may show the parent alone.

Key:
[1] = system: IL-1β; assay: THP-1 AlphaLISA IL-1β cytokine assay; assay type: cell-based; conditions: Homo sapiens, differentiated THP-1 cells
Description: Biological Example 1—THP-1 AlphaLISA IL-1β and IL-6 Cytokine Assay Measuring Inhibitory Effects on IL-1, and IL-6 Cytokine Output from THP-1s The cytokine inhibition profiles of compounds of formula (I) were determined in a differentiated THP-1 cell assay. All assays were performed in RPMI-1640 growth medium (Gibco), supplemented with 10% fetal bovine serum (FBS; Gibco), 1% penicillin-streptomycin and 1% sodium pyruvate unless specified otherwise. The IL-1β and IL-6 cytokine inhibition assays were each run in a background of differentiated THP-1 cells as described below. All reagents described were from Sigma-Aldrich unless specified otherwise. Compounds were prepared as 10 mM DMSO stocks. THP-1 cells were expanded as a suspension up to 80% confluence in appropriate growth medium. Cells were harvested, suspended, and treated with an appropriate concentration of phorbol 12-myristate 13-acetate (PMA) over a 72 hr period (37° C./5% CO2). Following 72 hrs of THP-1 cell incubation, cellular medium was removed and replaced with fresh growth media containing 1% of FBS. Working concentrations of compounds were prepared separately in 10% FBS treated growth medium and pre-incubated with the cells for 30 minutes (37° C./5% CO2). Following the 30 minute compound pre-incubation, THP-1s were treated with an appropriate concentration of LPS and the THP-1s were subsequently incubated for a 24 hr period (37° C./5% CO2). An appropriate final concentration of Nigericin was then dispensed into the THP-1 plates and incubated for 1 hour (37° C./5% CO2) before THP-1 supernatants were harvested and collected in separate polypropylene 96-well holding plates. Reagents from each of the IL-1β and IL-6 commercial kits (Perkin Elmer) were prepared and run according to the manufacturer's instructions. Subsequently, fluorescence signal detection in a microplate reader was measured (EnVision® Multilabel Reader, Perkin Elmer). Percentage inhibition was calculated per cytokine by normalizing the sample data to the high and low controls used within each plate (+/−LPS respectively). Percentage inhibition was then plotted against compound concentration and the 50% inhibitory concentration (IC50) was determined from the resultant concentration-response curve.

[2] = system: NRF2; assay: NRF2 activation assay (DiscoverX PathHunter NRF2 translocation kit, U2OS cells); assay type: cell-based
Description: Biological Example 2—NRF2 Activation Assay Measuring Compound Activation Effects on the Anti-Inflammatory Transcription Factor NRF2 in DiscoverX PathHunter NRF2 Translocation Kit Potency and efficacy of compounds of formula (I) against the target of interest to activate NRF2 (nuclear factor erythroid 2-related factor 2) were determined using the PathHunter NRF2 translocation kit (DiscoverX). The NRF2 translocation assay was run using an engineered recombinant cell line, utilising enzyme fragment complementation to determine activation of the Keap1-NRF2 protein complex and subsequent translocation of NRF2 into the nucleus. Enzyme activity was quantified using a chemiluminescent substrate consumed following the formation of a functional enzyme upon PK-tagged NRF2 translocation into the nucleus. Additionally, a defined concentration of dimethyl fumarate was used as the ‘High’ control to normalise test compound activation responses to. U2OS PathHunter eXpress cells were thawed from frozen prior to plating. Following plating, U2OS cells were incubated for 24 hrs (37° C./5% CO2) in commercial kit provided cell medium. Following 24 hrs of U2OS incubation, cells were directly treated with an appropriate final concentration of compound. Following compound treatment, the U2OS plates were incubated for a further 6 hours (37° C./5% CO2) before detection reagent from the PathHunter NRF2 commercial kit was prepared and added to test plates according to the manufacturer's instructions. Subsequently, the luminescence signal detection in a microplate reader was measured (PHERAstar®, BMG Labtech). Percentage activation was calculated by normalising the sample data to the high and low controls used within each plate (+/−DMF). Percentage activation/response was then plotted against compound concentration and the 50% activation concentration (EC50) was determined from the plotted concentration-response curve.

[3] = system: hepatocytes; assay: Hepatocyte stability assay, mouse; assay type: in vitro ADME; conditions: 10 μM compound
From the text: (§1) Biological Example 3—Hepatocyte Stability Assay
(§2) Defrosted cryo-preserved hepatocytes (viability >70%) are used to determine the metabolic stability of a compound via calculation of intrinsic clearance (CIint; a measure of the removal of a compound from the liver in the absence of blood flow and cell binding). Clearance data are particularly important for […] as they can be used in combination with in vivo data to predict the half-life and oral bioavailability of a drug.
(§3) The metabolic stability in hepatocytes assay involves a time-dependent reaction using both positive and negative controls. The cells must be pre-incubated at 37° C. then spiked with test compound (and positive control); samples taken at pre-determined time intervals are analysed to monitor the change in concentration of the initial drug compound over 60 minutes. A buffer incubation reaction (with no hepatocytes present) acts as a negative control and two cocktail solutions, containing compounds with known high and low clearance values (verapamil/7-hydroxycoumarin and propranolol/diltiazem), act as positive controls. • 1. The assay is run with a cell concentration of 0.5×10^6 cells/mL in Leibovitz buffer. • 2. All compounds and controls are run in duplicate. • 3. Compound concentration is 10 μM. • 4. All compounds and controls are incubated with both cells and buffer to show turnover is due to hepatic metabolism. • 5. All wells on the incubation plate will have 326.7 μL of either cells or buffer added. • 6. Prior to assay, cell and buffer-only incubation plates are preincubated for 10 mins at 37° C. • 7. The assay is initiated by adding compounds, 3.3 μL of 1 mM in 10% DMSO-90% Buffer; final DMSO concentration is 0.1%. • 8. Samples are taken at regular timepoints (0, 5, 10, 20, 40, 60 min) until 60 mins. • 9. Sample volume is 40 μL and it is added to 160 μL of crash solvent (acetonitrile with internal standard) and stored on ice. • 10. At the end of the assay, the crash plates are centrifuged at 3500 rpm for 20 mins at 4° C. • 11. 80 μL of clear supernatant is removed and mixed with 80 μL of deionised water before being analysed by LC-MS/MS.
(§4) Raw LC-MS/MS data are exported to, and analysed in, Microsoft Excel for determination of intrinsic clearance. The percentage remaining of a compound is monitored using the peak area of the initial concentration as 100%. Intrinsic clearance and half-life values are calculated using a graph of the natural log of percentage remaining versus the time of reaction in minutes. Half-life (min) and intrinsic clearance (CIint in μL min^−1 10^−6 cells) values are calculated using the gradient of the graph (the elimination rate constant, k) and Equations 1 and 2.

[4] = Hepatocyte stability assay, mouse; assay type: in vitro ADME; conditions: mouse, cryopreserved hepatocytes, 10 μM compound
From the text: as §1, §2, §3, §4

[5] = system: hepatocytes; assay: Hepatocyte stability assay, human; assay type: in vitro ADME; conditions: 10 μM compound
From the text: as §1, §2, §3, §4

[6] = Hepatocyte stability assay, human; assay type: in vitro ADME; conditions: cryopreserved hepatocytes, 10 μM compound
From the text: as §1, §2, §3, §4

[7] = +GSH, normalised to dimethyl fumarate high control, Table 3
[8] = −GSH, normalised to dimethyl fumarate high control, Table 3
[9] = +GSH, Table 4, compounds of formula (II)
[10] = −GSH, Table 4, compounds of formula (II)

Compound | IC50 ([1]; LPS then Nigericin, Table 1) [µM] | EC50 ([2]; +GSH, Table 3) [µM] | EC50 ([2]; −GSH, Table 3) [µM] | CIint ([3]; Table 5) | half-life at 10 μM ([4]; Table 5, read-out: T½) [min] | CIint ([5]; Table 5) | half-life at 10 μM ([6]; Table 5, read-out: T½) [min] | IC50 ([1]; Table 2, compounds of formula (II)) [µM] | EC50 [2, 9] [µM] | EC50 [2, 10] [µM] | CIint ([3]; Table 6) | half-life at 10 μM ([4]; Table 6, read-out: T½) [min] | CIint ([5]; Table 6) | half-life at 10 μM ([6]; Table 6, read-out: T½) [min] | T½ ([5]; Table 6) [min] | NRF2 activation Emax [2, 7] | NRF2 activation Emax [2, 8] | NRF2 activation Emax [2, 9] | NRF2 activation Emax [2, 10]
C[C@@H](OC(=O)/C=C/C(=O)OC1CCCCCCC1)C(=O)O [Example 12, (R,E)-2-((4-(cyclooctyloxy)-4-oxobut-2-enoyl)oxy)propanoic acid] | < 2.5 | 6 to 20 | < 2 | + (+ means >277) | < 5 | ++++ (++++ means <50) | > 100 |  |  |  |  |  |  |  |  | ++ (++ means 100-149) | ++++ (++++ means 200-250%) |  | 
O=C(O)/C=C/C(=O)OC1CC2(CCC2)C1 [Intermediate 7, (E)-4-oxo-4-(spiro[3.3]heptan-2-yloxy)but-2-enoic acid] |  |  |  |  |  |  |  | 6 to 30 | < 23 | < 23 | ++ (++ means >30-110) | 5 to 29 | +++ (+++ means >15-30) | 30 to 100 |  |  |  | +++ (+++ means >114-150%) | ++++ (++++ means >150%)
O=C(/C=C/C(=O)OC1(C(=O)O)CC1)OC1CCCCCCC1 [Example 8, (E)-1-((4-(cyclooctyloxy)-4-oxobut-2-enoyl)oxy)cyclopropane-1-carboxylic acid] | < 2.5 | 20 to 100 | < 2 | + (+ means >277) | < 5 | +++ (+++ means 50-149) | 5 to 29 |  |  |  |  |  |  |  |  | ++ (++ means 100-149) | ++++ (++++ means 200-250%) |  | 
CCCCCC[C@@H](C)OC(=O)/C=C/C(=O)OCCC(=O)O [Example 14, (R,E)-3-((4-(octan-2-yloxy)-4-oxobut-2-enoyl)oxy)propanoic acid] | < 2.5 | 6 to 20 | 2.1 to 6 | + (+ means >277) | < 5 | + (+ means >277) | < 5 |  |  |  |  |  |  |  |  | ++ (++ means 100-149) | +++ (+++ means 150-199%) |  | 
COC(=O)/C=C/C(=O)OCCN1C(=O)CCC1=O [2-(2,5-Dioxopyrrolidin-1-yl)ethyl methyl fumarate, reference compound] | 6.2 |  |  | >277 μL min^−1 10^−6 cells | < 5 | >277 μL min^−1 10^−6 cells | < 5 |  |  |  | >277 μL min^−1 10^−6 cells | < 5 | >277 μL min^−1 10^−6 cells |  | <5 |  |  |  | 
O=C(O)COC(=O)/C=C/C(=O)OC1CC2(CCC2)C1 [Example 9, (E)-2-((4-oxo-4-(spiro[3.3]heptan-2-yloxy)but-2-enoyl)oxy)acetic acid] | 2.5 to 6.1 |  |  | + (+ means >277) | < 5 | ++++ (++++ means <50) | 30 to 100 |  |  |  |  |  |  |  |  |  |  |  | 

Now from value to compound, other results behind:

IC50 ([1]; LPS then Nigericin, Table 1) [µM] | EC50 ([2]; +GSH, Table 3) [µM] | EC50 ([2]; −GSH, Table 3) [µM] | CIint ([3]; Table 5) | half-life at 10 μM ([4]; Table 5, read-out: T½) [min] | CIint ([5]; Table 5) | half-life at 10 μM ([6]; Table 5, read-out: T½) [min] | IC50 ([1]; Table 2, compounds of formula (II)) [µM] | EC50 [2, 9] [µM] | EC50 [2, 10] [µM] | CIint ([3]; Table 6) | half-life at 10 μM ([4]; Table 6, read-out: T½) [min] | CIint ([5]; Table 6) | half-life at 10 μM ([6]; Table 6, read-out: T½) [min] | T½ ([5]; Table 6) [min] | Compound | NRF2 activation Emax [2, 7] | NRF2 activation Emax [2, 8] | NRF2 activation Emax [2, 9] | NRF2 activation Emax [2, 10]
< 2.5 | 20 to 100 | < 2 | + (+ means >277) | < 5 | +++ (+++ means 50-149) | 5 to 29 |  |  |  |  |  |  |  |  | CC(CC(=O)O)OC(=O)/C=C/C(=O)OC1CCCCCCC1 (stereo not shown) [Example 11, (E)-3-((4-(cyclooctyloxy)-4-oxobut-2-enoyl)oxy)butanoic acid] | + (+ means >17.1-99) | ++++ (++++ means 200-250%) |  | 
< 2.5 | 6 to 20 | < 2 | ++ (++ means 200-277) | 5 to 10 | ++++ (++++ means <50) | 30 to 100 |  |  |  |  |  |  |  |  | C[C@H](OC(=O)/C=C/C(=O)OC1CCCCCCC1)C(=O)O [Example 6, (S,E)-2-((4-(cyclooctyloxy)-4-oxobut-2-enoyl)oxy)propanoic acid] | + (+ means >17.1-99) | ++++ (++++ means 200-250%) |  | 
< 2.5 |  |  | + (+ means >277) | < 5 | ++++ (++++ means <50) | 30 to 100 |  |  |  |  |  |  |  |  | O=C(O)COC(=O)/C=C/C(=O)OC1CCCCCC1 [Example 10, (E)-2-((4-(cycloheptyloxy)-4-oxobut-2-enoyl)oxy)acetic acid] |  |  |  | 
